6 compounds from ChEMBL document CHEMBL1138685, “Molecular recognition in purinergic receptors. 2. Diastereoselectivity of the h-P2Y1-receptor” (J Med Chem, 2004) can be followed below.

The structures appear in SMILES notation.

In this experiment the target is P2Y purinoceptor 1 (Homo sapiens) (UniProt P47900). As to the kind of experiment: Concenthumanion required for calcium mobilization at human purinergic 2Y1 receptor expressed in HEK 293 cells.
Chain of P2Y purinoceptor 1 (Homo sapiens) (P47900 whole entry, looked up): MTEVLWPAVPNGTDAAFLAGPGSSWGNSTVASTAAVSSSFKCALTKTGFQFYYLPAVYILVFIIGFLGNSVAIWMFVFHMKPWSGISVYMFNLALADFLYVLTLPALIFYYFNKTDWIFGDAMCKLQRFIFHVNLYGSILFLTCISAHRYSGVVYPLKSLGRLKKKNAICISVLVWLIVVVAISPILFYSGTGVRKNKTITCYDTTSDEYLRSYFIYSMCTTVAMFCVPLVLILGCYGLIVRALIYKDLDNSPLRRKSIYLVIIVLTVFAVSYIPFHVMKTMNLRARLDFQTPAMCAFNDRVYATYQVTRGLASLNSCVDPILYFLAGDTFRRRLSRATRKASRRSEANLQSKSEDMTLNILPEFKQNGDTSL
For `Nc1ncnc2c1ncn2C1O[C@H](CO[P@@](O)(=S)OP(=O)(O)OP(=O)(O)O)[C@@H](O)[C@H]1O` (stereo partly specified), the EC50 is 75 nM.

For the compound `CSc1nc(N)c2ncn(C3O[C@H](CO[P@@](O)(=S)OP(=O)(O)OP(=O)(O)O)[C@@H](O)[C@H]3O)c2n1` (stereo partly specified), the EC50 was 20 nM. With `Nc1ncnc2c1ncn2C1O[C@H](CO[P@](O)(=S)OP(=O)(O)OP(=O)(O)O)[C@@H](O)[C@H]1O` (stereo partly specified) the figure was 9.4 nM; with `CSc1nc(N)c2ncn(C3O[C@H](CO[P@](O)(=S)OP(=O)(O)OP(=O)(O)O)[C@@H](O)[C@H]3O)c2n1` (stereo partly specified), 1 nM.

As to `BP(=O)(OC[C@H]1O[C@@H](n2cnc3c(N)nc(SC)nc32)[C@H](O)[C@@H]1O)OP(=O)(O)OP(=O)(O)O` (stereo partly specified), the EC50 worked out at 53 nM. As for `CSc1nc(N)c2ncn([C@@H]3O[C@H](COP(=O)(O)OP(=O)(O)OP(=O)(O)O)[C@@H](O)[C@H]3O)c2n1`, the figure is 1 nM.
